# According to publication PMC9400670, “Establishing the selective phospholipid membrane coordination, permeation and lysis properties for a series of ‘druggable’ supramolecular self-associating antimicrobial amphiphiles” (Chemical Science, 2022):
# Read-outs that look alike come from different tables or passages of the source.
# Legend:
# E. coli DH10B = details: cited from earlier work; for MIC50 E. coli: E. coli DH10B, n = 3, 0.5 McFarland standard, number in bracket = efficacy rank
# [1] = system: E. coli total lipid vesicles; test: Synthetic phospholipid vesicle membrane binding assay (fluorescence polarisation), E. coli total vesicles; details: lipid vesicles added to SSA (0.15 mM); n = 3; error = standard error; SSA alone set to 100 mP
# Description: (§1) For intrinsically fluorescent SSAs 5, 6 and 8–12, FP titration experiments enabled the observation of SSA: phospholipid vesicle interactions. Here, an increase in FP value indicates an increase in the apparent size of the SSA as it interacts with the phospholipid vesicle. […]
# (§2) Fluorescence polarisation: Lipid films were resuspended in Buffer (150 mM KCl, 10 mM HEPES, pH 7.4, 2 mM EGTA) and subjected to 9 freeze-thaw cycles in liquid nitrogen and extruded 20 times through a 200 nm polycarbonate membrane. Black bottom 96-well plates were prepared by serially diluting desired vesicle solution across the plate, the appropriate SSA solution (100 µL, 0.15 mM) was added to each well to give a total well volume of 200 µL. Fluorescent SSA solutions were set to a FP value of 100 mP. Data were acquired in endpoint mode. […]
# PG lipid vesicles = test: Synthetic phospholipid vesicle membrane binding assay (fluorescence polarisation), PG vesicles; details: lipid vesicles added to SSA (0.15 mM); n = 3; error = standard error; SSA alone set to 100 mP
# Description: as §1, §2
# PE-PG mix lipid vesicles = test: Synthetic phospholipid vesicle membrane binding assay (fluorescence polarisation), PE-PG mix vesicles; details: lipid vesicles added to SSA (0.15 mM); n = 3; error = standard error; SSA alone set to 100 mP
# Description: as §1, §2
# PC lipid vesicles = test: Synthetic phospholipid vesicle membrane binding assay (fluorescence polarisation), PC vesicles; details: lipid vesicles added to SSA (0.15 mM); n = 3; error = standard error; SSA alone set to 100 mP
# Description: as §1, §2
# PC nanodiscs = test: Phospholipid nanodisc 1H NMR CPMG coordination assay, PC nanodiscs; format: binding; details: SSA 100 µM
# Description: Finally, to establish how any single SSA structural variation affects the coordination of an individual salt component to the surface of a phospholipid membrane, the binding of the anionic and cationic components of SSAs 5–12 with nanodiscs comprised of PC, PG or the PE : PG mix (Table 2) was studied. Nanodiscs were synthesised from synthetic vesicles of the relevant phospholipid composition. For full synthetic procedures and nanodisc characterisation please see ESI (Section 13). ^†[34,35]
# Styrene-maleic acid (SMA) nanodiscs are small biomimetic scaffolds with a hydrodynamic diameter ≈ 10 nm. They consist of a single disc-shaped planar phospholipid bilayer, ‘belted’ in this instance with a synthetic SMA co-polymer. Here nanodiscs of a specific phospholipid composition were titrated against a solution of SSAs 5–12 (0.10 mM) in a sodium phosphate buffer (20 mM) with NaCl (20 mM) at pH 7.4. This solution was supplemented with 5% D2O, to enable NMR locking and 4,4-dimethyl4-silapentane-1-sulfonic acid (DSS – 0.02 mM) to act as an internal standard. The nanodiscs were then titrated against the SSA, while the SSA concentration was maintained as constant, well below the CMC (Table 3).[38] A 1D ^1H NMR with a Carr–Purcell–Meiboom–Gill sequence (CPMG) filter (300 ms),[36,48] modified with a watergate element was then obtained for each experimental data point. The watergate element was used to allow suppression of the water signal, whereas the CPMG filter enabled the suppression of those resonances from molecular species with long correlation times, which in this instance correlate to the signals of those SSAs coordinated to the nanodisc, rather than those which exist as free species in solution. Comparative integration of the resonances corresponding to the SSA cation or anion, standardised against the DSS internal standard, permits the percentage of the individual SSA components coordinated to the phospholipid nanodisc to be established with respect to increasing nanodisc concentration.
# However, when considering the 1/EC50 for the SSA cationic component (Fig. 10b), the reverse is true. This is perhaps expected, but nevertheless despite the identical experimental conditions, including the same TBA counter cation across SSAs 5–12, there is a marked difference in the 1/EC50 obtained, where the only difference is the SSA anion present. This is most noticeable for the series of SSA titrations involving the PE : PG mix (Table 2) nanodiscs. The only variation within this set of titrations is the structure of the SSA anion; we therefore conclude that the SSA anion is influencing SSA cation nanodisc coordination events. This observation provides evidence for the presence of further complex interactions informing SSA:nanodisc coordination processes. […]
# Data were acquired in endpoint mode. All experiments were repeated in triplicate […]
# Nanodisc preparation: Lipid films were resuspended in Buffer (20 mM NaCl, 20 mM NaH 2PO4, pH 7.4) and sonicated for 1 hour, at a 5:1 ratio, SMA was added and incubated at 37 °C for 1 hour. Dialysed overnight in 5 L of the same buffer in 10 KDa cut-off dialysis tubing, concentrated, and underwent gel filtration size exclusion chromatography on a Superdex 200 10/300 GL column (GE Healthcare) in the same buffer, whilst monitoring absorbance at 260 nm. Nanodisc quantification carried out via monitoring of absorbance at 260 nm using a calibration curve.2
# 1H NMR CPMG: 1H NMR CPMG3,4 spectra were obtained with a Bruker Avance III […] spectrometer equipped with a TCIP cryoprobe at 298 K. Samples were supplemented with 5 % D 2O and 0.02 mM 4,4-dimethyl4-silapentane-1-sulfonic acid (DSS). The standard zgprcpmg pulse sequence from the Bruker library was modified with a watergate element to allow suppressi on of the water signal and was used for all experiments. Although this sequence is readily obtainable, we are happy to provide it on request. The P1 pulses were 9 µs at a power of 7.9 W. Presaturation was applied between […]
# [2] = concentration of nanodisc coordinating 50 % of the SSA anion, Hill Plot fit, Vmax fixed 100 %, read-out: EC50 PC, anionic SSA component
# [3] = experimental endpoint 4.00 µM nanodisc, read-out: EC50 PC, cationic SSA component
SMILES,MIC50 E. coli (E. coli DH10B; after 900 min),"initial antimicrobial screening, inhibition of growth, E. coli (E. coli DH10B; 3.3 mM, after 900 min)","initial antimicrobial screening outcome, E. coli (E. coli DH10B; Table S3, screening at 3.3 mM)","increase in FP, E. coli total [1] [mP]","increase in FP, PG (PG lipid vesicles) [mP]","increase in FP, PE-PG mix (PE-PG mix lipid vesicles) [mP]","increase in FP, PC (PC lipid vesicles) [mP]",EC50 (PC nanodiscs; [2]) [nM],EC50 (PC nanodiscs; [3]) [nM],"EC50 (PC nanodiscs; concentration of nanodisc coordinating 50 % of the SSA cation, Hill Plot fit, Vmax fixed 100 %, read-out: EC50 PC, cationic SSA component) [nM]"
O=C(NCS(=O)(=O)O)Nc1ccc(C(F)(F)F)cc1 [SSA 1],3.85(7) mM,–,–,–,–,–,–,–,–,–
O=C(NCCCS(=O)(=O)O)Nc1ccc(C(F)(F)F)cc1 [SSA 2],1.48(3) mM,–,–,–,–,–,–,–,–,–
O=C(NCS(=O)(=O)O)Nc1ccc(C(F)(F)F)cc1 [SSA 3],–,"^c (SSA did not pass initial antimicrobial screening, exhibited <10% inhibition of growth at 3.3 mM after 900 min and therefore excluded from further study)",Fail,–,–,–,–,–,–,–
O=C(O)CNC(=O)Nc1ccc(C(F)(F)F)cc1 [SSA 4],1.25(2) mM,–,–,–,–,–,–,–,–,–
O=C(NCS(=O)(=O)O)Nc1ccccc1-c1nc2ccccc2s1 [SSA 5],3.57(5) mM,–,–,32 ± 3,43 ± 9,36 ± 3,87 ± 4,–,–,–
Cc1ccc2nc(-c3ccc(NC(=O)NCS(=O)(=O)O)cc3)sc2c1 [SSA 6],5.02(8) mM,–,–,20 ± 1,40 ± 4,9 ± 1,47 ± 8,360,–,–
O=C(NCS(=O)(=O)O)Nc1ccc(-c2nc3ccccc3s2)cc1 [SSA 8],–,–,–,24 ± 3,29 ± 1,32 ± 1,35 ± 4,2660,–,–
Cc1ccc2nc(-c3ccc(NC(=O)NCCC(=O)O)cc3)sc2c1 [SSA 9],–,–,–,130 ± 5,47 ± 1,35 ± 2,35 ± 10,270,> 4000,–
Cc1ccc2nc(-c3ccc(NC(=O)NCCCS(=O)(=O)O)cc3)sc2c1 [SSA 10],–,–,–,15 ± 2,29 ± 2,21 ± 2,26 ± 1,360,> 4000,–
Cc1ccc2nc(-c3ccc(NC(=O)NCC(=O)O)cc3)sc2c1 [SSA 11],–,–,–,66 ± 4,209 ± 4,45 ± 2,68 ± 1,490,–,–
Cc1ccc2nc(-c3ccc(NC(=S)NCS(=O)(=O)O)cc3)sc2c1 [SSA 12],–,–,–,199 ± 5,126 ± 5,107 ± 3,163 ± 6,140,–,2240
